This is an account of results in patent US6682739B1, “Methods of inhibiting osteoclastogenesis” (The Trustees of the University of Pennsylvania, priority 1999, dated 2004).

For orientation: IC50 means the midpoint of a concentration-inhibition curve.

In test [1] the test system is TRANCE-induced marrow cultures (RANK Ligand/RANK interaction). Kind of test: TRANCE-induced marrow cultures. It is filed as cell-based. The following applies: reciprocal dose-dependence of WP9QY and TRANCE.
The subject of the next test is TNF-α receptor. The following applies: L929 lymphocytes; cited from earlier work.
Test [2] has as its system osteoclast formation (osteoclastogenesis). The following applies: co-culture induced by 1alpha,25-dihydroxyvitamin D3 and PGE2.
The next test concerns the target T1, TNF (UniProt P01375 77-233).
T1 construct: also called TNF-alpha; Tumor Necrosis Factor
Kind of test: inhibition of the TNF/TNF receptor interaction; format not described in Example 1.

Test [3] concerns osteoclastogenesis and associated bone resorption. The settings on record: administration in vivo; animal models that mimic osteopenic disorders; cited from earlier work.

Positions of bridges follow the written chain, without caps; N, C: chain ends. No end group written: not given here.

T1 sequence (P01375 77-233 limits assumed): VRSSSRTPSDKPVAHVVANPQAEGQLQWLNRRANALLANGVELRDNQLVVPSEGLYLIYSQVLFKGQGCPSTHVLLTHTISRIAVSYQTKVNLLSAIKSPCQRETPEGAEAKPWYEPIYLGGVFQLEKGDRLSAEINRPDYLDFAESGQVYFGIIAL

With `CC(C)C[C@@H]1NC(=O)[C@H](Cc2ccc(O)cc2)NC(=O)[C@H](CCC(N)=O)NC(=O)[C@H](CO)NC(=O)[C@H](Cc2c[nH]c3ccccc23)NC(=O)[C@@H](NC(=O)[C@@H](N)Cc2ccc(O)cc2)CSSC[C@@H](C(=O)N[C@@H](Cc2ccc(O)cc2)C(=O)O)NC1=O` [WP9QY, YC WSQYL CY], in test [1], the “effect on TRANCE-induced marrow cultures” value is “inhibits”. The “antagonism of the effects of TNF-binding to the TNF-α receptor” value with TNF-α receptor is “efficiently antagonized”. In test [2], the “inhibition of osteoclastogenesis, in words” value is “dose- and time-dependently inhibited”. Also, the IC50 in test [2] (read-out: IC50 for inhibition of osteoclastogenesis, peptide tested at about 5 μM to about 500 μM) was found to be 250 µM.

B1: WP9QY (peptide)
peptide: YCWSQYLCY
modifications: disulfide 2-8
notes: Synthetic exocyclic peptide; also called WP9QY peptide; peptidomimetic (WP9QY)
Regarding B1, half-maximal inhibition with TNF (IC50) was put at 5 µM.

B2: OPG: naturally occurring secreted protein with homology to members of the TNF receptor family; positive control in the TRAP assay (protein, UniProt O00300 22-401, looked up)
Tumor necrosis factor …: ETFPPKYLHYDEETSHQLLCDKCPPGTYLKQHCTAKWKTVCAPCPDHYYTDSWHTSDECLYCSPVCKELQYVKQECNRTHNRVCECKEGRYLEIEFCLKHRSCPPGFGVVQAGTPERNTVCKRCPDGFFSNETSSKAPCRKHTNCSVFGLLLTQKGNATHDNICSGNSESTQKCGIDVTLCEEAFFRFAVPTKFTPNWLSVLVDNLPGTKVNAESVERIKRQHSSQEQTFQLLKLWKHQNKDQDIVKKIIQDIDLCENSVQRHIGHANLTFEQLRSLMESLPGKKVGAEDIEKTIKACKPSDQILKLLSLWRIKNGDQDTLKGLMHALKHSKTYHFPKTVTQSLKKTIRFLHSFTMYKLYQKLFLEMIGNQVQSVKISCL
Take B2: the “effect on osteoclastogenesis and associated bone resorption in vivo” value in test [3] is “inhibits osteoclastogenesis and associated bone resorption”.
